Results as given in US12258327B2, “5-membered heteroaryl-containing aminopyridine compounds as EGFR inhibitors” (YUHAN CORPORATION, priority 2021, dated 2025).
pIC50: −log10 of the molar value. Where two headings read alike, the source gives them in different places.

What was measured:
EGFR del19/T790M/C797S = EGFR del19/T790M/C797S (Homo sapiens, UniProt P00533, C797S/DEL746-750/T790M); test: Biochemical EGFR kinase assay (Lance Ultra TR-FRET), triple mutant del19/T790M/C797S
Summary of the method: (§1)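 In this biochemical assay, phosphorylation after a one-hour room-temperature reaction was detected with europium-labelled anti-phosphopeptide antibody at 2 nM final concentration.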

EGFR L858R/T790M/C797S = EGFR L858R/T790M/C797S (Homo sapiens, UniProt P00533, C797S/L858R/T790M); test: Biochemical EGFR kinase assay (Lance Ultra TR-FRET), triple mutant L858R/T790M/C797S
Summary of the method: as §1

EGFR del19/C797S = EGFR del19/C797S (Homo sapiens, UniProt P00533, C797S/DEL746-750); test: Biochemical EGFR kinase assay (Lance Ultra TR-FRET), double mutant del19/C797S
Summary of the method: as §1

EGFR L858R/C797S = EGFR L858R/C797S (Homo sapiens, UniProt P00533, C797S/L858R); test: Biochemical EGFR kinase assay (Lance Ultra TR-FRET), double mutant L858R/C797S
Summary of the method: as §1

EGFR wildtype (WT) = EGFR wildtype (WT) (Homo sapiens, UniProt P00533); test: Biochemical EGFR kinase assay (Lance Ultra TR-FRET), wildtype
Summary of the method: as §1

[1] = IC50 del19/T790M/C797S (nM) 100 μM ATP, 100 μM ATP
[2] = Km ATP, read-out: IC50 del19/T790M/C797S (nM) Km ATP
[3] = IC50 L858R/T790M/C797S (nM) 100 μM ATP, 100 μM ATP
[4] = Km ATP, read-out: IC50 L858R/T790M/C797S (nM) Km ATP
[5] = IC50 del19/C797S (nM) 100 μM ATP, 100 μM ATP
[6] = Km ATP, read-out: IC50 del19/C797S (nM) Km ATP
[7] = IC50 L858R/C797S (nM) 100 μM ATP, 100 μM ATP
[8] = Km ATP, read-out: IC50 L858R/C797S (nM) Km ATP
[9] = IC50 WT (nM) 100 μM ATP, 100 μM ATP
[10] = Km ATP, read-out: IC50 WT (nM) Km ATP

EGFR del19/T790M/C797S, sequence (P00533 with tags, fused parts or gaps DEL746-750/T790M/C797S): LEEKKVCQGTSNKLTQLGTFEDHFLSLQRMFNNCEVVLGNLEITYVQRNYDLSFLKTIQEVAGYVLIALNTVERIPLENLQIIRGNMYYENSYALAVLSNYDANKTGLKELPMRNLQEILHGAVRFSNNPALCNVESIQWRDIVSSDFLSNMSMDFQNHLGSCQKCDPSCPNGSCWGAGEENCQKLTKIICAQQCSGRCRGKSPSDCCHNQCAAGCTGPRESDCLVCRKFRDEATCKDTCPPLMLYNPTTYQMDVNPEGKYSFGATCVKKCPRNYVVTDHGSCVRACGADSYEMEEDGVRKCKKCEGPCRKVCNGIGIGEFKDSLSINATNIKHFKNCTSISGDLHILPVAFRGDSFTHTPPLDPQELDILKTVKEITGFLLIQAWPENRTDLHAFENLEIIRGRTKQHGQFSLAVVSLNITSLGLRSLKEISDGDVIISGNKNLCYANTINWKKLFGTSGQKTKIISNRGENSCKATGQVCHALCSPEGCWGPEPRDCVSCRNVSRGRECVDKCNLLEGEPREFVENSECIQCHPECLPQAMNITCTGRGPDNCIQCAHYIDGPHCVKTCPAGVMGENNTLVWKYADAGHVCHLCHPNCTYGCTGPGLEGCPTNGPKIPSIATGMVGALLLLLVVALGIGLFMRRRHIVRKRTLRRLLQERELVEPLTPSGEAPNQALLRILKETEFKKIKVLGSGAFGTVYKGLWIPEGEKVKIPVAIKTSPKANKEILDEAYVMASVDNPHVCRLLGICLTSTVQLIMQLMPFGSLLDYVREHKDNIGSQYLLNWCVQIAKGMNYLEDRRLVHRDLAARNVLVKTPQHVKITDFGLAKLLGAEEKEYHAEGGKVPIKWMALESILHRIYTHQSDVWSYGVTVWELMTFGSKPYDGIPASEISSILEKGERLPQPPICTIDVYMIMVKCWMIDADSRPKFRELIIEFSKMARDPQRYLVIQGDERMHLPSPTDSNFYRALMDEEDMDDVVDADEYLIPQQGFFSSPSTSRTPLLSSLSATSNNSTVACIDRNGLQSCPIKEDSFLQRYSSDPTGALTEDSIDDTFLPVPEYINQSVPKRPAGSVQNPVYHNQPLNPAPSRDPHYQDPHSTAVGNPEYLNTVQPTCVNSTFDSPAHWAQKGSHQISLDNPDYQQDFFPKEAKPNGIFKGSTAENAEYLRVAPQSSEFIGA
EGFR wildtype (WT), sequence (P00533 25-1210): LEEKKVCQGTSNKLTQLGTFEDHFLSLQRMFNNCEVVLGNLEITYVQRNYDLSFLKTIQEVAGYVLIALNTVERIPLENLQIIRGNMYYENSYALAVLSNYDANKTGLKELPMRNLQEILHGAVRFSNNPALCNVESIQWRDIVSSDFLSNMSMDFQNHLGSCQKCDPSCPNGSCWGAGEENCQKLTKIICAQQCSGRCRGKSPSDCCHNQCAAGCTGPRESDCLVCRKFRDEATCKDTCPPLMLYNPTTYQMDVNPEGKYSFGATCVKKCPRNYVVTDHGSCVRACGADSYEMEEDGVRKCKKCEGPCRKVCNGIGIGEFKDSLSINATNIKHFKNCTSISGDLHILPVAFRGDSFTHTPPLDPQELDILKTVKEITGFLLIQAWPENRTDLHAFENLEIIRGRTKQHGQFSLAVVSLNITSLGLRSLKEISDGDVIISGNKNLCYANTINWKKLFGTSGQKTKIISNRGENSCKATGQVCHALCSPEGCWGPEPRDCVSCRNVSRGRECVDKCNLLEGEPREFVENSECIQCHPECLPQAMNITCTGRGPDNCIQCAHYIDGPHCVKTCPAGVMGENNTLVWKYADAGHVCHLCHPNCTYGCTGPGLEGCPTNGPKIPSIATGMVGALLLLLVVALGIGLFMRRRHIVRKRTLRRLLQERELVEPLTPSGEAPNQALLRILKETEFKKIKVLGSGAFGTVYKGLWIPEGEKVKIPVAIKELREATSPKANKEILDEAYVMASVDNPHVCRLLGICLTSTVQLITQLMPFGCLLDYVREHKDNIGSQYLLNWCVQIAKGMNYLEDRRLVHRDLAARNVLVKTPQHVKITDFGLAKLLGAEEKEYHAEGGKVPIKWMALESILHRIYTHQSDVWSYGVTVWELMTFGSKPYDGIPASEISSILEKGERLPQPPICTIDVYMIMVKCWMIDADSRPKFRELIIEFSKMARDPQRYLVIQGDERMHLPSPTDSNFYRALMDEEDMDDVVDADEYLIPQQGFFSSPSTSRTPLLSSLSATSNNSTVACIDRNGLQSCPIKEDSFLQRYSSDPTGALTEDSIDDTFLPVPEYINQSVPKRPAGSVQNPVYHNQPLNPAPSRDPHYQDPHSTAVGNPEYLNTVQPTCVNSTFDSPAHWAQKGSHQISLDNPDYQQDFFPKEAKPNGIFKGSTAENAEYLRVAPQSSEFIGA
EGFR del19/C797S, sequence (P00533 with tags, fused parts or gaps DEL746-750/C797S): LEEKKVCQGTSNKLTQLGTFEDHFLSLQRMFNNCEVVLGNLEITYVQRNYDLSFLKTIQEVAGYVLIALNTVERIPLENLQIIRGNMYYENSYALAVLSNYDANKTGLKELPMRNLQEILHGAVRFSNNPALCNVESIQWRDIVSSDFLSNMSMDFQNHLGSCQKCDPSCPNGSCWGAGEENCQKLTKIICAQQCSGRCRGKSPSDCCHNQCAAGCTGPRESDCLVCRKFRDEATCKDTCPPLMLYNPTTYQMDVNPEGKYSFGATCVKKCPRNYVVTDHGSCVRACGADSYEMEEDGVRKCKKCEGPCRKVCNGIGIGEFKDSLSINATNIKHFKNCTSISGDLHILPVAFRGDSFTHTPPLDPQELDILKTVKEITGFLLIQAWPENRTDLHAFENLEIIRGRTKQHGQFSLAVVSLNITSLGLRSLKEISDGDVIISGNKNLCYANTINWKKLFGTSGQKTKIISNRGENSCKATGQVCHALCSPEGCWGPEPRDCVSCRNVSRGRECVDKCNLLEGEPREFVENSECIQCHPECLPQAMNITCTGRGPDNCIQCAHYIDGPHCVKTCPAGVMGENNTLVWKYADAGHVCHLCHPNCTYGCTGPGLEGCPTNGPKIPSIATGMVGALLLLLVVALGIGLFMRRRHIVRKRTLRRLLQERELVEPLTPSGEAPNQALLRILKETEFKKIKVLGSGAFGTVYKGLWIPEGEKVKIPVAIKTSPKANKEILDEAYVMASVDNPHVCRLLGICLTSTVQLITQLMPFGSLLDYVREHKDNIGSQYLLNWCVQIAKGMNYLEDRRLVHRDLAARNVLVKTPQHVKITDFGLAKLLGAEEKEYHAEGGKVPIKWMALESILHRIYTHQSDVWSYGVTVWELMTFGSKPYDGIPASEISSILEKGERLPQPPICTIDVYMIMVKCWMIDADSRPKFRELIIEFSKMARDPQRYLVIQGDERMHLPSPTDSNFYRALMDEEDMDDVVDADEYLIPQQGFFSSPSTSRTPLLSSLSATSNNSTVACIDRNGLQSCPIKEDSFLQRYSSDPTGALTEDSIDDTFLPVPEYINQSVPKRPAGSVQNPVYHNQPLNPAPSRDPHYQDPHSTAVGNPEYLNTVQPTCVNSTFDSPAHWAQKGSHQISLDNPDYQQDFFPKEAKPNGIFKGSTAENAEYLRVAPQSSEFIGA
EGFR L858R/C797S, sequence (P00533 25-1210 C797S/L858R): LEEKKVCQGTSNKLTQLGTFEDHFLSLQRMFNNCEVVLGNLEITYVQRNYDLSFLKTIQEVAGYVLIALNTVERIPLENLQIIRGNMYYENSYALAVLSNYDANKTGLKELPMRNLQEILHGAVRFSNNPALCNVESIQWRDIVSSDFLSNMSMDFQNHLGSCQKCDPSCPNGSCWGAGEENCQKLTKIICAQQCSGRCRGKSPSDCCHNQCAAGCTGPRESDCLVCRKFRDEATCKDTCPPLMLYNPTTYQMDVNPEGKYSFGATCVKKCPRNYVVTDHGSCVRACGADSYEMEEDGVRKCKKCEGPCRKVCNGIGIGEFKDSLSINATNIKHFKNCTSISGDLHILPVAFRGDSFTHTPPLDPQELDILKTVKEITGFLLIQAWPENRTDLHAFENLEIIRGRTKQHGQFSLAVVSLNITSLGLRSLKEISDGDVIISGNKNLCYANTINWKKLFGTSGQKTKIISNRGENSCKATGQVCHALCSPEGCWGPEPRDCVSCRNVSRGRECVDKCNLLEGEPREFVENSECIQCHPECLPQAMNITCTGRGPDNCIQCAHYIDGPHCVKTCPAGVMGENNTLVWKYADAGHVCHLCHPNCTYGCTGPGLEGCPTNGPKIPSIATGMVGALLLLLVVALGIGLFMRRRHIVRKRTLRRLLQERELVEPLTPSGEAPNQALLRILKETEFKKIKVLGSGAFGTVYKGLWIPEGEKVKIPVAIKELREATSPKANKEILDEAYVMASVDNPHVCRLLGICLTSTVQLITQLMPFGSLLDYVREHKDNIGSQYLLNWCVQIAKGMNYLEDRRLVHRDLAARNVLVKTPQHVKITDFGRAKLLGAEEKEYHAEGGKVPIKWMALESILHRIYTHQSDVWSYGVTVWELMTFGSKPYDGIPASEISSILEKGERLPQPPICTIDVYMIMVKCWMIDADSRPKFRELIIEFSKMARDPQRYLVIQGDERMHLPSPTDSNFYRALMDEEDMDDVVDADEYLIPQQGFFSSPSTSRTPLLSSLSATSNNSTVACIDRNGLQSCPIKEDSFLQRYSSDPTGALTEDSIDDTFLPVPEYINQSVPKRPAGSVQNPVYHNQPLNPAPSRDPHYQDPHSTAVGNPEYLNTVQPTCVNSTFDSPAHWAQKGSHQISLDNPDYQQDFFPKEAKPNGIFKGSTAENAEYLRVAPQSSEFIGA

| IC50 (EGFR del19/T790M/C797S; [1]) [nM] | IC50 (EGFR del19/T790M/C797S; [2]) [nM] | IC50 (EGFR L858R/T790M/C797S; [3]) [nM] | IC50 (EGFR L858R/T790M/C797S; [4]) [nM] | IC50 (EGFR del19/C797S; [5]) [nM] | IC50 (EGFR del19/C797S; [6]) [nM] | IC50 (EGFR L858R/C797S; [7]) [nM] | IC50 (EGFR L858R/C797S; [8]) [nM] | IC50 (EGFR wildtype (WT); [9]) [nM] | IC50 (EGFR wildtype (WT); [10]) [nM] | pIC50 (EGFR del19/T790M/C797S; Km ATP, read-out: IC50 del19/T790M/C797S, Km ATP) | pIC50 (EGFR L858R/T790M/C797S; Km ATP, read-out: IC50 L858R/T790M/C797S, Km ATP) | pIC50 (EGFR del19/C797S; Km ATP, read-out: IC50 del19/C797S, Km ATP) | pIC50 (EGFR L858R/C797S; Km ATP, read-out: IC50 L858R/C797S, Km ATP) | pIC50 (EGFR wildtype (WT); Km ATP, read-out: IC50 WT, Km ATP) | Structure (SMILES) |
| --- | --- | --- | --- | --- | --- | --- | --- | --- | --- | --- | --- | --- | --- | --- | --- |
| 0.2 | 0.2 | 0.8 | 0.1 | 1.7 | 3.4 | 42.3 | 2.6 | > 10000 | 26 | – | – | – | – | – | O=S(=O)(C1CC1)n1cc(-c2nccc(Nc3cc(OC4CCC(O)CC4)c(-c4cnn(C(F)F)c4)cn3)n2)cn1 (stereo not shown) [Example 71, 4-((2-((2-(1-(Cyclopropylsulfonyl)-1H-pyrazol-4-yl)pyrimidin-4-yl)amino)-5-(1-(difluoromethyl)-1H-pyrazol-4-yl)pyridin-4-yl)oxy)cyclohexan-1-ol] |
| 2.1 | – | 6.7 | – | 44.4 | – | 962 | – | > 10000 | – | – | – | – | – | – | Cn1ccc(-c2cnc(Nc3ccnc(-c4cnn(S(=O)(=O)C5CC5)c4)n3)cc2N[C@H]2CC[C@H](CO)OC2)n1 [Example 227, ((2R,5S)-5-((2-((2-(1-(Cyclopropylsulfonyl)-1H-pyrazol-4-yl)pyrimidin-4-yl)amino)-5-(1-methyl-1H-pyrazol-3-yl)pyridin-4-yl)amino)tetrahydro-2H-pyran-2-yl)methanol] |
| – | 8.5 | – | 3.5 | – | 118 | – | 16.1 | – | 85.1 | – | – | – | – | – | Cn1ccc(-c2cnc(Nc3ccnc(-c4cnn(S(=O)(=O)C5CC5)c4)n3)cc2NCC2CCC(C(F)F)CC2)n1 (stereo not shown) [Example 152, N^2-(2-(1-(Cyclopropylsulfonyl)-1H-pyrazol-4-yl)pyrimidin-4-yl)-N^4-((4-(difluoromethyl)cyclohexyl)methyl)-5-(1-methyl-1H-pyrazol-3-yl)pyridine-2,4-diamine] |
| 5.4 | – | 7.4 | – | 12.2 | 11.8 | 187 | 6.6 | > 10000 | 86.8 | – | – | – | – | – | CC(C)(O)[C@H]1CC[C@@H](Nc2cc(Nc3ccnc(-c4cnn(S(=O)(=O)C5CC5)c4)n3)ncc2-c2ccn(CC(F)(F)F)n2)CC1 [Example 265, 2-((1s,4s)-4-((2-((2-(1-(Cyclopropylsulfonyl)-1H-pyrazol-4-yl)pyrimidin-4-yl)amino)-5-(1-(2,2,2-trifluoroethyl)-1H-pyrazol-3-yl)pyridin-4-yl)amino)cyclohexyl)propan-2-ol] |
| 1 | 0.8 | 0.7 | 1 | 0.7 | 0.2 | 3.8 | 0.3 | 51.9 | 0.4 | – | – | – | – | – | Cc1cc(-c2cnc(Nc3ccnc(-c4cnn(S(=O)(=O)C5CC5)c4)n3)cc2N[C@H]2CC[C@@H](CO)CC2)nn1C [Example 280, ((1s,4s)-4-((2-((2-(1-(Cyclopropylsulfonyl)-1H-pyrazol-4-yl)pyrimidin-4-yl)amino)-5-(1,5-dimethyl-1H-pyrazol-3-yl)pyridin-4-yl)amino)cyclohexyl)methanol] |
| – | – | – | – | – | – | – | – | – | – | 9.15 | 9.52 | 7.96 | 7.88 | 7.19 | C[C@]1(O)CC[C@@H](Nc2nc(Nc3ccnc(-c4cnn(S(=O)(=O)C5CC5)c4)c3)ncc2-c2ccn(C(F)F)n2)CC1 [Example 355, (1s,4s)-4-((2-((2-(1-(Cyclopropylsulfonyl)-1H-pyrazol-4-yl)pyridin-4-yl)amino)-5-(1-(difluoromethyl)-1H-pyrazol-3-yl)pyrimidin-4-yl)amino)-1-methylcyclohexan-1-ol] |
| 0.2 | 0.1 | 0.2 | 0.1 | 0.8 | 0.6 | 24.5 | 0.9 | 2360 | 3.3 | – | – | – | – | – | Cn1ccc(-c2cnc(Nc3ccnc(-c4cnn(S(=O)(=O)C5CC5)c4)n3)cc2NCC2(CO)COC2)n1 [Example 228, (3-(((2-((2-(1-(Cyclopropylsulfonyl)-1H-pyrazol-4-yl)pyrimidin-4-yl)amino)-5-(1-methyl-1H-pyrazol-3-yl)pyridin-4-yl)amino)methyl)oxetan-3-yl)methanol] |
| 0.7 | – | 2.3 | – | 0.4 | – | 3 | – | 1520 | – | – | – | – | – | – | CC(C)(O)c1nc(-c2cnc(Nc3ccnc(-c4cnn(S(=O)(=O)C5CC5)c4)n3)cc2N[C@H]2CC[C@@H](O)CC2)cs1 [Example 76, (1s,4s)-4-((2-((2-(1-(Cyclopropylsulfonyl)-1H-pyrazol-4-yl)pyrimidin-4-yl)amino)-5-(2-(2-hydroxypropan-2-yl)thiazol-4-yl)pyridin-4-yl)amino)cyclohexan-1-ol] |
| – | 8 | – | 5.3 | – | 67.7 | – | 12 | – | 853 | – | – | – | – | – | O=S(=O)(C1CC1)n1cc(-c2nccc(Nc3cc(N[C@H]4CC[C@@H](F)CC4)c(-c4ccn(CC(F)(F)F)n4)cn3)n2)cn1 [Example 305, N^2-(2-(1-(Cyclopropylsulfonyl)-1H-pyrazol-4-yl)pyrimidin-4-yl)-N^4-((1s,4s)-4-fluorocyclohexyl)-5-(1-(2,2,2-trifluoroethyl)-1H-pyrazol-3-yl)pyridine-2,4-diamine] |
| 0.3 | – | 3.3 | 0.1 | 2.2 | 0.7 | 3040 | 4.2 | > 10000 | 84.7 | – | – | – | – | – | O=S(=O)(C1CC1)n1cc(-c2nccc(Nc3cc(N[C@H]4CC[C@H](CO)CC4)c(-c4ccn(C(F)F)n4)cn3)n2)cn1 [Example 198, ((1r,4r)-4-((2-((2-(1-(Cyclopropylsulfonyl)-1H-pyrazol-4-yl)pyrimidin-4-yl)amino)-5-(1-(difluoromethyl)-1H-pyrazol-3-yl)pyridin-4-yl)amino)cyclohexyl)methanol] |
| 0.5 | 0.8 | 0.5 | 0.3 | 2.1 | 1.1 | 2.9 | 0.7 | > 10000 | – | – | – | – | – | – | CN(C)C(=O)[C@H]1CC[C@@H](Nc2cc(Nc3ccnc(-c4cnn(S(=O)(=O)C5CC5)c4)n3)ncc2-c2ccn(C(F)F)n2)CC1 [Example 201, (1s,4s)-4-((2-((2-(1-(Cyclopropylsulfonyl)-1H-pyrazol-4-yl)pyrimidin-4-yl)amino)-5-(1-(difluoromethyl)-1H-pyrazol-3-yl)pyridin-4-yl)amino)-N,N-dimethylcyclohexane-1-carboxamide] |
| – | 0.6 | – | 0.3 | – | 0.4 | – | 0.1 | – | 0.3 | – | – | – | – | – | CN(C)CC[C@H]1CC[C@@H](Nc2cc(Nc3ccnc(-c4cnn(S(=O)(=O)C5CC5)c4)n3)ncc2-c2ccn(C(F)F)n2)CC1 [Example 211, N^2-(2-(1-(Cyclopropylsulfonyl)-1H-pyrazol-4-yl)pyrimidin-4-yl)-5-(1-(difluoromethyl)-1H-pyrazol-3-yl)-N^4-((1s,4s)-4-(2-(dimethylamino)ethyl)cyclohexyl)pyridine-2,4-diamine] |
| 3.1 | – | 6.4 | – | 40.8 | – | 1120 | – | > 10000 | – | – | – | – | – | – | CC1(CNc2cc(Nc3ccnc(-c4cnn(S(=O)(=O)C5CC5)c4)n3)ncc2-c2ccn(C(F)F)n2)CCC(O)CC1 (stereo not shown) [Example 128, 4-(((2-((2-(1-(Cyclopropylsulfonyl)-1H-pyrazol-4-yl)pyrimidin-4-yl)amino)-5-(1-(difluoromethyl)-1H-pyrazol-3-yl)pyridin-4-yl)amino)methyl)-4-methylcyclohexan-1-ol] |
